The test system of one data set is mitochondrial ATP output. Briefly: Bicep curls to failure (reps-to-failure) as proxy for ATP output. The class given is in vivo, human. Further details: key to Latching: ↑: Up-latching is indicated by an up-arrow; ↓: down-latching by a down-arrow; —: others producing no significant effect are indicated by a dash. The conditions noted are these: for Latching: Table 1, up-/down-latching of IMM judged by reps-to-failure; for change in reps-to-failure from baseline: 100 mg dose, baseline 11 reps.

For data set [1] the following is noted: in vivo; cited from earlier work.

Values joined by “and” are separate entries in the source; they are usually repeats but may differ in a detail not shown here. Equal values may be shown once. “Also recorded” adds a separate entry of the source. Read-outs that look alike come from different tables or passages of the source.

As to `O=C1c2c(O)cc(O)cc2O[C@H](c2cc(O)c(O)c(O)c2)[C@H]1O` [DHM, Dihydromyricetin], the “latching behaviour as described in words” value with mitochondrial ATP output is “down-latching”. Further, the “reps-to-failure after dosing on top of up-latching” value with mitochondrial ATP output (FIG. 9 curve 924, dosed at point 922 after lactate/AAKG/PQQ, baseline 20 reps, then recovery) is on record as “substantially below baseline”.

For the molecule `O=C(O)/C=C/C(=O)O` [Fumaric acid], in the data set on mitochondrial ATP output, the “latching behaviour as described in words” value is on record as “one of the best up-latchers” and the Latching entry is “↑”. In the data set with mitochondrial ATP output (FIG. 1, dosed singly, neutralized, baseline 12 reps), the “reps-to-failure curve compared with curve 124 of the fumaric acid/AAKG combination” value was “much lower”.

As to `O=C(O)C(O)c1ccccc1` (centres unmarked) [Mandelic acid], the reps-to-failure after dose in the data set on mitochondrial ATP output (1 g of salt, from 14 reps (after 3 g glycerol)) is on record as 31 reps. The Latching result with mitochondrial ATP output was “↑”.

Take `O=C(O)CCC(=O)C(=O)O` [AKG, Alpha-ketoglutarate]: the “latching behaviour as described in words” value with mitochondrial ATP output (in vivo) is recorded as “weak up-latcher”.

For `O=C(O)CCCCCCC(=O)O` [Suberic acid], the Latching result in the data set on mitochondrial ATP output was “↑”.

Turning to `CN(CC(=O)O)C(=N)N` [Creatine], in the data set with mitochondrial ATP output, the “latching behaviour as described in words” value is “did not latch” and the Latching entry was “—”.

`O=C(O)c1cc(C(=O)O)c2c(n1)C(=O)C(=O)c1cc(C(=O)O)[nH]c1-2` [PQQ, Pyrroloquinoline quinone]: in the data set with mitochondrial ATP output (FIG. 3A point 340, PQQ increased 5-fold to 100 mg, with one gram AAKG, person after shingles), the “effect on fission and fusion reps-to-failure curves” value was “near instant merger of fission and fusion lines”.

On to `OCC(O)CO` [Glycerol], for which, in the data set with mitochondrial ATP output, the “latching behaviour as described in words” value is “strong down-latcher” and the Latching result is “↓”. In addition, the “reps-to-failure after being reduced” value in the data set on mitochondrial ATP output (3 g, separate trials) is 11 reps and 14 reps. For the same molecule, in the data set with mitochondrial ATP output (5 g), the “reps-to-failure after being knocked down” value is 14 reps. In addition, in the data set on mitochondrial ATP output (FIG. 3A point 373, 5 g, from up-latched level), the “reps-to-failure after dose relative to baseline” value is recorded as “down to baseline”. For the same molecule, the “reps-to-failure after dose (stabilized)” value in the data set with mitochondrial ATP output (FIG. 4, five grams, from 30 reps) is “about 13 reps”.

Regarding `Oc1ccc(C=Cc2cc(O)cc(O)c2)cc1` [Resveratrol], in the data set with mitochondrial ATP output, the Latching entry was “↓”.

On to `CCCCOC(=O)C(C)O` (centres unmarked) [butyl lactate], for which, in the data set with mitochondrial ATP output, the “latching behaviour as described in words” value is listed as “strong down-latchers”.

Regarding `O=C(O)CCCCCCCC(=O)O` [Azelaic acid], in the data set on mitochondrial ATP output, the Latching result was “↑”. This molecule also registered a reps-to-failure after dose in the data set on mitochondrial ATP output (one gram, used alone, from 13, in 30 minutes) of 43 reps.

Turning to `c12c3c4c5c1c1c6c7c2c2c8c3c3c9c4c4c%10c5c5c1c1c6c6c%11c7c2c2c7c8c3c3c8c9c4c4c9c%10c5c5c1c1c6c6c%11c2c2c7c3c3c8c4c4c9c5c1c1c6c2c3c41` [C60, fullerene C60], the subsequent reps-to-failure performance entry in the data set on mitochondrial ATP output (FIG. 6 curve 624, 3 mg C60 in MCT oil taken at 49 reps after up-latchers and DHM) is listed as “almost flat”.

Consider `O=C(O)CO` [Glycolic acid], for which, in the data set on mitochondrial ATP output (.7 g, from 14 reps (after 5 g glycerol), in about 1 hour), the reps-to-failure after dose turned out to be 28 reps. For the same molecule, the Latching result with mitochondrial ATP output was “↑”.

As for `CC(O)C(=O)O` (centres unmarked) [Lactic acid], the “reps-to-failure relative to new baseline 350” value in the data set with mitochondrial ATP output (FIG. 3A points 360-362, after PQQ treatments) is given as “above baseline 350”. Also, the Latching entry with mitochondrial ATP output is recorded as “↑”. Also, the biological half-life entry in data set [1] is recorded as “around 20 minutes”.

For `CC(=O)C(=O)O` [Pyruvate], the Latching entry in the data set on mitochondrial ATP output is “—”.

Regarding `COC1=C(OC)C(=O)C(C/C=C(\C)CC/C=C(\C)CC/C=C(\C)CC/C=C(\C)CC/C=C(\C)CC/C=C(\C)CC/C=C(\C)CC/C=C(\C)CC/C=C(\C)CCC=C(C)C)=C(C)C1=O` [CoQ-10], the Latching result with mitochondrial ATP output was “—”.

Turning to `O=C(O)C(O)C(O)C(=O)O` (centres unmarked) [Tartaric acid], the reps-to-failure after dose in the data set with mitochondrial ATP output (2 g, from 11 reps (after 3 g glycerol)) came to 21 reps. Also, in the data set with mitochondrial ATP output, the Latching result is “↑”.

On to `NC(=O)c1cccnc1` [nicotinamide], for which the “latching behaviour as described in words” value with mitochondrial ATP output is “down-latchers”.

Regarding `CCOC(=O)C(C)O` (centres unmarked) [ethyl lactate], in the data set with mitochondrial ATP output, the “latching behaviour as described in words” value is recorded as “strong down-latchers”.

As to `O=C1NS(=O)(=O)c2ccccc21` [Saccharin], the Latching entry in the data set with mitochondrial ATP output is “.—”.

`O=C(O)CCCCC(=O)O` [Adipic acid] came in with a reps-to-failure after dose with mitochondrial ATP output (1 gram with 1 gram AAKG and sodium bicarbonate, from 11 reps, in 20 minutes) of 31 reps. The Latching entry in the data set with mitochondrial ATP output is on record as “↑”.

`O=C(O)CC(O)(CC(=O)O)C(=O)O` [Citric acid]: in the data set on mitochondrial ATP output, the “latching behaviour as described in words” value is reported as “strongest down-latchers; also recorded: strong down-latcher”. Moreover, the reps-to-failure after dose was determined as 11 reps in the data set with mitochondrial ATP output (50 mg taken alone, from 20) and 10 reps with mitochondrial ATP output (FIG. 11 point 1108, two grams neutralized, from baseline 22 reps, stays flat). Also, the Latching result in the data set with mitochondrial ATP output is listed as “↓”. For the same molecule, the “bicep curls to failure after dose” value in the data set with mitochondrial ATP output (about 2 g neutralized by bicarbonate, from 24 rep baseline, at 15 and 30 minutes) stood at 11 reps. The “half-life in the body” value in data set [1] is “about 5 minutes”.

Consider `CN(C)c1ccc2nc3ccc(=[N+](C)C)cc-3sc2c1` [methylene blue, reference compound], for which the “change in reps-to-failure from baseline” value with mitochondrial ATP output (at 15 minutes) and in the data set on mitochondrial ATP output (at one hour) was “no change” each time.

Turning to `O=C(O)c1cccnc1` [Niacin], the “latching behaviour as described in words” value in the data set with mitochondrial ATP output is “down-latchers”.

With `O=C(O)CC(O)C(=O)O` (centres unmarked) [Malic acid], the Latching entry in the data set with mitochondrial ATP output is reported as “↑”. This molecule displayed a reps-to-failure after dose with mitochondrial ATP output (as magnesium malate, from 10 reps (after 3 g glycerol and 1 g ethyl lactate), in 2 hours) of 21 reps. Besides, in the data set with mitochondrial ATP output (separate trials, neutralized), the “reps-to-failure results compared with neutralized fumaric acid in FIG. 1” value was “nearly identical”.

In the case of `O=C(O)CC(=O)C(=O)O` [Oxaloacetic acid], in the data set with mitochondrial ATP output, the Latching entry is listed as “↑”.

As to `O=c1oc2cc(O)ccc2c2ccc(O)cc12` [Urolithin A], in the data set on mitochondrial ATP output, the Latching result is on record as “↓”.

With `OC[C@@H](O)[C@@H](O)[C@H](O)[C@@H](O)CO` [Sorbitol], the Latching result with mitochondrial ATP output was “↓”.

Take `OC[C@@H](O)[C@@H](O)[C@H](O)[C@H](O)CO` [Mannitol]: in the data set with mitochondrial ATP output, the Latching entry is on record as “—”.

Consider `O=C(O)CCCCCC(=O)O` [Pimelic acid], for which the Latching result in the data set on mitochondrial ATP output is “↑”.

Take `OC[C@@H](O)[C@@H](O)CO` [Erythritol]: in the data set with mitochondrial ATP output, the “latching behaviour as described in words” value is “strong down-latchers” and the Latching result was “↓”. The reps-to-failure after dose with mitochondrial ATP output (FIG. 6 point 630, dosed at up-latched level of about 49 reps) came out at 11 reps.

With `CC1=C(/C=C/C(C)=C/C=C/C(C)=C/C=C/C=C(C)/C=C/C=C(C)/C=C/C2=C(C)C[C@@H](O)CC2(C)C)C(C)(C)C[C@H](O)C1` [zeaxanthin], in the data set on mitochondrial ATP output, the “latching behaviour as described in words” value is given as “substantially non-latcher”. The “maximum bicep curls to failure after dose” value in the data set with mitochondrial ATP output (FIG. 7 point 706, from baseline of 9 reps, in 15 minutes, then fell back) was 14 reps.

For `O=C(O)CCC(=O)O` [Succinic acid], in the data set on mitochondrial ATP output, the “latching behaviour as described in words” value is “indirect up-latcher” and the Latching entry is listed as “↑”. In addition, in the data set with mitochondrial ATP output (combined with AAKG and a neutralizing base), the “peak reps-to-failure relative to fumaric and/or malic acids” value is given as “about half”. For the same molecule, in the data set on mitochondrial ATP output (combined with AAKG and a neutralizing base, versus fumaric/malic acids), the “delay of reps-to-failure peak” value is recorded as “about 15 minutes”.

Take `CC(C)=CCC/C(C)=C/C=C/C(C)=C/C=C/C(C)=C/C=C/C=C(C)/C=C/C=C(C)/C=C/C=C(\C)CCC=C(C)C` [Lycopene]: the “bicep curls to failure after dose” value with mitochondrial ATP output (FIG. 7, 100 mg, from baseline of 6 reps, 70 minutes) is 32 reps. In addition, in the data set on mitochondrial ATP output, the Latching result is given as “↑”.
